Data taken from patent US11485733B2, “Azaquinoline derivatives” (BAYER ANIMAL HEALTH GMBH, priority 2017, dated 2022).

Columns and labels:
[1] = tested on: Dirofilaria immitis; assay: Dirofilaria immitis (DIROIM L4) larval motility; settings: 72 h, read-out: EC50 (reduction of motility)
[2] = molecular target: D. immitis Slo-1 (Dirofilaria immitis, UniProt I0DFK5); assay: D. immitis Slo-1, action at a recombinant CHO cell line (membrane potential, FLIPR); format: cell-based
[3] = tested on: Dirofilaria immitis microfilariae; assay: Dirofilaria immitis microfilariae (DIROIM L1) motility; settings: 72 h, read-out: EC50 (reduction of motility)
[4] = tested on: Litomosoides sigmodontis third-stage larvae; assay: Litomosoides sigmodontis (LTMOSI L3) larval motility; settings: 72 h, read-out: EC50 (reduction of motility)
Experimental: In Vitro Assay 6: Litomosoides sigmodontis (LTMOSI L3)
10 Litomosoides sigmodontis third-stage larvae, which were freshly isolated from the pleural cavity of an infected rodent, were added to wells of a microtitre plate containing a nutrient medium and the test compound in DMSO. Compounds were tested in concentration-response assay in duplicate. Larvae exposed to DMSO and no test compounds were used as negative controls. Larvae were evaluated after 72 h of incubation with the compound. Efficacy was determined as the reduction of motility in comparison to the negative control. Based on the evaluation of a wide concentration range, concentration-response curves as well as EC50-values were calculated.

[5] = tested on: Nippostrongylus brasiliensis; assay: Nippostrongylus brasiliensis (NIPOBR) adult worms, acetylcholine esterase readout; settings: read-out: activity (reduction of AChE compared to negative control); for inhibition at 1 µg/mL: at 1 μg/ml (1 ppm); for inhibition at 10 µg/mL: at 10 μg/ml (10 ppm)
Experimental: In Vitro Assay 3: Nippostrongylus brasiliensis (NIPOBR)
Adult Nippostrongylus brasiliensis were washed with saline buffer containing 100 U/ml penicillin, 0.1 mg/ml streptomycin and 2.5 μg/ml amphotericin B. Test compounds were dissolved in DMSO and worms were incubated in medium in a final concentration of 10 μg/ml (10 ppm) respectively 1 μg/ml (1 ppm). An aliquot of the medium was used to determine the acetylcholine esterase activity in comparison to a negative control. The principle of measuring acetylcholine esterase as readout for anthelmintic activity was described in Rapson et al (1986) and Rapson et al (1987).

[6] = molecular target: C. elegans Slo-1a (Caenorhabditis elegans, UniProt Q95V25); settings: pE50 (negative decadic logarithm of EC50), CHO cells expressing C. elegans Slo-1a; voltage sensitive dye, 70 mM KCl
Experimental: Generation of a Stable C. elegans CHO Cell Line
A CHO cell line was obtained from ATCC, code ATCC CRL-9096. […] The transfection solution included 300 μL OptiMEM (Life Technologies, Nr.: 31985), 2 μL (=6 μg) of plasmid DNA containing the C. elegans Slo 1a gene and 9 μL FugeneHD (Promega, Nr.: E2311), and was added to the cells prior to incubation for 48 hours at 37° C., 5% CO2. The transfection medium was exchanged for the selection medium which contains additional G418 (2 mg/ml, Invitrogen, Nr.: 10131) and the cells were seeded into 384 well plates (300 cells/well). After a few weeks, the remaining surviving cells were tested with a voltage sensitive dye (Membrane Potential Assay Kit, Molecular Devices Nr.: R8034) for K+ channel expression. Positive cell clones were purified by the limited dilution technique. For this the clone with the highest and most robust signal in the voltage sensitive dye assay was further subcloned (incubated) in 384 well plates (0.7 cells/well) in order to obtain clonal purity. This generated a final stable CHO cell line expressing the C. elegans Slo-1a.
Cells were cultured at 37° C. and 5% CO2 in MEMalpha with Gutamax I (Invitrogen, Nr.: 32571), supplemented with 10% (v/v) heat inactivated fetal bovine serum (Invitrogen, Nr.: 10500), G418 (1 mg/ml, Invitrogen, Nr.: 10131). Cells were detached using Accutase (Sigma, Nr.: A6964).
Membrane Potential Measurements
Laboratory compound testing was performed on 384-well microtiter plates (MTPs, Greiner, Nr.: 781092). 8000 cells/well were plated onto 384-well MTPs and cultured for 20 to 24 hours at 37° C. and 5% CO2. After removal of the cell culture medium, the cells were washed once with tyrode (150 mM NaCl, 0.3 mM KCl, 2 mM CaCl2, 1 mM MgCl2, 0.8 mM NaH2PO4, 5 mM Glucose, 28 mM Hepes, pH 7.4) and then loaded with the voltage sensitive dye of the Membrane Potential Assay Kit diluted in tyrode for 1 h at room temperature.
After starting the measurement of fluorescence using a FLIPR Tetra (Molecular Devices, Exc. 510-545 nm, Emm. 565-625 nm), test compounds were added followed by the addition of KCl tyrode (final assay concentration: 70 mM KCl, 2 mM CaCl2, 1 mM MgCl2, 0.8 mM NaH2PO4, 5 mM Glucose, 28 mM Hepes, pH 7.4, including the voltage sensitive dye). The measurement was completed after 7 minutes.
The data were evaluated by using the ActivityBase XLfit software (IDBS) for curve fitting and calculation of the half-maximal effective concentration (EC50) and are reported as negative decadic logarithm (pE50).

[7] = tested on: Cooperia curticei; assay: Cooperia curticei larval mortality; settings: 120 h, read-out: activity (percentage of larval mortality)
Experimental: In Vitro Assay 6: Cooperia curticei
Solvent: Dimethyl Sulfoxide
Approximately 40 nematode larvae (Cooperia curticei) are transferred into a test tube containing the compound solution.
After 5 days percentage of larval mortality is recorded. 100% efficacy means all larvae are killed; 0% efficacy means no larvae are killed.

[8] = tested on: Haemonchus contortus; assay: Haemonchus contortus larval mortality; settings: 120 h, read-out: activity (percentage of larval mortality)
Experimental: In Vitro Assay 7: Haemonchus contortus
Solvent: Dimethyl Sulfoxide
Approximately 40 larvae of the red stomach worm (Haemonchus contortus) are transferred into a test tube containing compound solution.
After 5 days the percentage of larval mortality is recorded. 100% efficacy means all larvae are killed, 0% efficacy means no larvae are killed.

C. elegans Slo-1a, sequence (Q95V25 whole entry): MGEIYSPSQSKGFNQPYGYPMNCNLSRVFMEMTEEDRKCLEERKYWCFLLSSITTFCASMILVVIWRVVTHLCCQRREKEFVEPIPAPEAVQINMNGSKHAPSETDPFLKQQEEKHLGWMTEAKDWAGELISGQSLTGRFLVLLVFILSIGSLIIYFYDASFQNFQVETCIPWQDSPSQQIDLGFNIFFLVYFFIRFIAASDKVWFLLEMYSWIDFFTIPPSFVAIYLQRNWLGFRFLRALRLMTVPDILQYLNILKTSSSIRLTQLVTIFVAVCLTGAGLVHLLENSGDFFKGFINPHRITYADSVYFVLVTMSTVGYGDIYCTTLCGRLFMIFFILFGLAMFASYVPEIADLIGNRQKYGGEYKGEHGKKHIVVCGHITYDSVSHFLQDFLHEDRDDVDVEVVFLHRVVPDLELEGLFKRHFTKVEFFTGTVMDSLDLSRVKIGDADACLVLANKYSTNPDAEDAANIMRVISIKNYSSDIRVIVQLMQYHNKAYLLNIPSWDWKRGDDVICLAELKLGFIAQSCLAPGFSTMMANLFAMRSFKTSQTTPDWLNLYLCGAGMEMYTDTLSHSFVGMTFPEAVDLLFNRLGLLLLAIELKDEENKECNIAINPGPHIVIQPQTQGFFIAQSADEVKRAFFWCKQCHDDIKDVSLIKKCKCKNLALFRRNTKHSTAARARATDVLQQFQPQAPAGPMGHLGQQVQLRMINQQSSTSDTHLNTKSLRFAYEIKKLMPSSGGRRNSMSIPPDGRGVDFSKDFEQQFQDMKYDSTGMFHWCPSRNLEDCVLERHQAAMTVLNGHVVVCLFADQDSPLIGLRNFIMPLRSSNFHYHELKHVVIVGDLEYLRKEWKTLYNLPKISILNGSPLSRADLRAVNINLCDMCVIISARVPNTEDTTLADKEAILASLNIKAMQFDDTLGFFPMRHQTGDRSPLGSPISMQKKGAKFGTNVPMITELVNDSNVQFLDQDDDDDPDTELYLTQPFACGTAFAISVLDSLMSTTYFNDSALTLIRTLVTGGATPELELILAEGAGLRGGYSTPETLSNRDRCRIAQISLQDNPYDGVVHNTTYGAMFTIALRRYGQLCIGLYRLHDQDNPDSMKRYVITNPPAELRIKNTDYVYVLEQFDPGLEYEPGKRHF
D. immitis Slo-1, sequence (I0DFK5 1-1119): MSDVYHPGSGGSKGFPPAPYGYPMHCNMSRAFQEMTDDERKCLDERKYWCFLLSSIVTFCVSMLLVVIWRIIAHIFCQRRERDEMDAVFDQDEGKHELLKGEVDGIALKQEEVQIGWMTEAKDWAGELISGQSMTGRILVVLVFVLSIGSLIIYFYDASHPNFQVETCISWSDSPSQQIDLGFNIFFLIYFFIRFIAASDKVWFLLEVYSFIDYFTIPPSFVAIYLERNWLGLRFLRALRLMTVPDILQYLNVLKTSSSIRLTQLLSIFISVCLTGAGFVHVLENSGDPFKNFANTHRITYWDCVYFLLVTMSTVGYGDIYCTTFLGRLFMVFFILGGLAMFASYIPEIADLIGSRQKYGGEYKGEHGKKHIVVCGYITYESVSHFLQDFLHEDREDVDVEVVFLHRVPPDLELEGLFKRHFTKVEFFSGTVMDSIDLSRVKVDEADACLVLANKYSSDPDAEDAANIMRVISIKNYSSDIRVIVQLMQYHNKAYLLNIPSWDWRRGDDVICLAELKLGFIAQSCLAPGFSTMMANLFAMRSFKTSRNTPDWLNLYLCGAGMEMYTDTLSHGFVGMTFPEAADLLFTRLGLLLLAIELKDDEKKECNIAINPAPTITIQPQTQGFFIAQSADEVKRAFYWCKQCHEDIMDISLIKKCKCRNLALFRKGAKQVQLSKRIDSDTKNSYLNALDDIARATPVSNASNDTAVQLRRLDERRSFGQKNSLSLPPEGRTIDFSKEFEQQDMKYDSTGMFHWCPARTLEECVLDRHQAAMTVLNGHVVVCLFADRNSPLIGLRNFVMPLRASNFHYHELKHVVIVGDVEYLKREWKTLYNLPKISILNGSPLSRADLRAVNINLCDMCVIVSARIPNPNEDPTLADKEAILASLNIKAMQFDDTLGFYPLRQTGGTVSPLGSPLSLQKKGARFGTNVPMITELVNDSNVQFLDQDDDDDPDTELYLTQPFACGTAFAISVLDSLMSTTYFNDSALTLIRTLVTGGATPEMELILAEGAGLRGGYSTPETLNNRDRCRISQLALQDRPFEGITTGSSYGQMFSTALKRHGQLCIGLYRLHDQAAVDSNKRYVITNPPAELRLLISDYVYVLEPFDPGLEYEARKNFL

Structure (SMILES)	EC50 [1] [µg/mL]	EC50 [2] [nM]	EC50 [3] [µg/mL]	EC50 [4] [µg/mL]	inhibition at 1 µg/mL [5] [%]	inhibition at 10 µg/mL [5] [%]	EC50 [6] [nM]	mortality at 4 ppm [7] [%]	mortality at 20 ppm [7] [%]	mortality at 20 ppm [8] [%]
COc1ncc(-c2cccc(Cl)c2Cl)c2ncc(C(=O)N[C@H]3CCOc4ccccc43)c(N(C)C)c12 [Example T2-12, 8-(2,3-dichlorophenyl)-N-[(4S)-3,4-dihydro-2H-1-benzopyran-4-yl]-4-(dimethylamino)-5-methoxy-1,6-naphthyridine-3-carboxamide]	< 0.1	31.6 to 316	< 0.1	< 0.1	> 80	> 80	< 3.16			
CN(C)c1c(C(=O)N[C@H]2CCOc3ccccc32)cnc2c(-c3cccc(Cl)c3Cl)c(F)cnc12 [Example T3-17, 8-(2,3-dichlorophenyl)-N-[(4S)-3,4-dihydro-2H-1-benzopyran-4-yl]-4-(dimethylamino)-7-fluoro-1,5-naphthyridine-3-carboxamide]	< 0.1	3.16 to 31.6	< 0.1	< 0.1	> 80	> 80				
O=C(N[C@H]1CCOc2ccccc21)c1cnc2c(-c3cc(Cl)cc(Cl)c3)nccc2c1N1CCOCC1 [Example T1-3, 8-(3,5-Dichlorophenyl)-N-[(4S)-3,4-dihydro-2H-chromen-4-yl]-4-(morpholin-4-yl)-1,7-naphthyridine-3-carboxamide]	< 0.1	31.6 to 316	< 0.1		> 80	> 80	3.16 to 31.6	100	100	100
COc1ncc(-c2cc(Cl)cc(Cl)c2)c2ncc(C(=O)N[C@H]3CCOc4ccccc43)c(N(C)C)c12 [Example T2-5, 8-(3,5-dichlorophenyl)-N-[(4S)-3,4-dihydro-2H-1-benzopyran-4-yl]-4-(dimethylamino)-5-methoxy-1,6-naphthyridine-3-carboxamide]	< 0.1	31.6 to 316	< 0.1	< 0.1	> 80	> 80				
CN(C)c1c(C(=O)N[C@H]2CCOc3ccccc32)cnc2c(-c3cccc(Cl)c3Cl)ccnc12 [Example T3-3, 8-(2,3-Dichlorophenyl)-N-[(4S)-3,4-dihydro-2H-chromen-4-yl]-4-(dimethylamino)-1,5-naphthyridine-3-carboxamide]	< 0.1	3.16 to 31.6	< 0.1	< 0.1	> 80		< 3.16	100	100	100
O=C(N[C@H]1CCOc2ccccc21)c1cnc2c(-c3cccc(Cl)c3Cl)nccc2c1N1CCOCC1 [Example T1-4, 8-(2,3-Dichlorophenyl)-N-[(4S)-3,4-dihydro-2H-chromen-4-yl]-4-(morpholin-4-yl)-1,7-naphthyridine-3-carboxamide]	< 0.1	31.6 to 316	< 0.1	< 0.1	> 80	> 80	3.16 to 31.6	100		
O=C(N[C@H]1CCOc2ccccc21)c1cnc2c(-c3cccc(Cl)c3Cl)ccnc2c1N1CCOCC1 [Example T3-4, 8-(2,3-Dichlorophenyl)-N-[(4S)-3,4-dihydro-2H-chromen-4-yl]-4-(morpholin-4-yl)-1,5-naphthyridine-3-carboxamide]	< 0.1	3.16 to 31.6	< 0.1		> 80		< 3.16	100	100	100
CN(C)c1c(C(=O)N[C@H]2CCOc3ccccc32)cnc2c(-c3cc(F)cc(F)c3F)ncc(F)c12 [Example T1-12, N-[(4S)-3,4-dihydro-2H-1-benzopyran-4-yl]-4-(dimethylamino)-5-fluoro-8-(2,3,5-trifluorophenyl)-1,7-naphthyridine-3-carboxamide]	< 0.1	31.6 to 316	< 0.1	< 0.1	> 80	> 80				
O=C(N[C@H]1CCOc2ccccc21)c1cnc2c(-c3cc(Cl)cc(Cl)c3Cl)nccc2c1N1CCOCC1 [Example T1-6, N-[(4S)-3,4-dihydro-2H-chromen-4-yl]-4-(morpholin-4-yl)-8-(2,3,5-trichlorophenyl)-1,7-naphthyridine-3-carboxamide]	< 0.1	3.16 to 31.6	< 0.1		> 80		< 3.16	100	100	100
COc1cnc2c(N(C)C)c(C(=O)N[C@H]3CCOc4ccccc43)cnc2c1-c1cc(F)cc(F)c1F [Example T3-15, N-[(4S)-3,4-dihydro-2H-1-benzopyran-4-yl]-4-(dimethylamino)-7-methoxy-8-(2,3,5-trifluorophenyl)-1,5-naphthyridine-3-carboxamide]	< 0.1	3.16 to 31.6	< 0.1	< 0.1	> 80	> 80				
CN(C)c1c(C(=O)N[C@H]2CCOc3ccccc32)cnc2c(-c3cc(Cl)cc(Cl)c3)nccc12 [Example T1-1, 8-(3,5-Dichlorophenyl)-N-[(4S)-3,4-dihydro-2H-chromen-4-yl]-4-(dimethylamino)-1,7-naphthyridine-3-carboxamide]	< 0.1	31.6 to 316	< 0.1	< 0.1	> 80		3.16 to 31.6	100	100	100
COc1c(C(=O)N[C@H]2CCOc3ccccc32)nnc2c(-c3cc(Cl)cc(Cl)c3)cccc12 [Example T5-5, 8-(3,5-Dichlorophenyl)-N-[(4S)-3,4-dihydro-2H-chromen-4-yl]-4-methoxycinnoline-3-carboxamide]	< 0.1	31.6 to 316	< 0.1		> 80		3.16 to 31.6	80	80	80
CN(C)c1c(C(=O)N[C@H]2CCOc3ccccc32)cnc2c(-c3cccc(Cl)c3Cl)ncc(F)c12 [Example T1-10, 8-(2,3-dichlorophenyl)-N-[(4S)-3,4-dihydro-2H-1-benzopyran-4-yl]-4-(dimethylamino)-5-fluoro-1,7-naphthyridine-3-carboxamide]	< 0.1	31.6 to 316	< 0.1	< 0.1		> 80	3.16 to 31.6			
CN(C)c1c(C(=O)N[C@H]2CCOc3ccccc32)cnc2c(-c3cccc(Cl)c3Cl)nccc12 [Example T1-2, 8-(2,3-Dichlorophenyl)-N-[(4S)-3,4-dihydro-2H-chromen-4-yl]-4-(dimethylamino)-1,7-naphthyridine-3-carboxamide]	< 0.1	31.6 to 316	< 0.1		> 80	> 80	3.16 to 31.6	100	100	90
CN(C)c1c(C(=O)N[C@H]2CCOc3ccccc32)cnc2c(-c3cc(Cl)cc(Cl)c3)cncc12 [Example T2-1, 8-(3,5-Dichlorophenyl)-N-[(4S)-3,4-dihydro-2H-chromen-4-yl]-4-(dimethylamino)-1,6-naphthyridine-3-carboxamide]	< 0.1	31.6 to 316	< 0.1		> 80		3.16 to 31.6	100	100	100
CN(C)c1c(C(=O)N[C@H]2CCOc3ccccc32)cnc2c(-c3cccc(Cl)c3Cl)cnnc12 [Example T6-1, 4-(2,3-Dichlorophenyl)-N-[(4S)-3,4-dihydro-2H-chromen-4-yl]-8-(dimethylamino)pyrido[3,2-c]pyridazine-7-carboxamide]	< 0.1		< 0.1		> 80		3.16 to 31.6		90	100
O=C(N[C@H]1CCOc2ccccc21)c1cnc2c(-c3cc(F)cc(F)c3F)c(F)cnc2c1N1CCOCC1 [Example T3-20, N-[(4S)-3,4-dihydro-2H-1-benzopyran-4-yl]-7-fluoro-4-(morpholin-4-yl)-8-(2,3,5-trifluorophenyl)-1,5-naphthyridine-3-carboxamide]	< 0.1	3.16 to 31.6	< 0.1	< 0.1	> 80	> 80				
O=C(N[C@H]1CCOc2ccccc21)c1cnc2c(-c3cccc(Cl)c3Cl)cncc2c1N1CCOCC1 [Example T2-3, 8-(2,3-Dichlorophenyl)-N-[(4S)-3,4-dihydro-2H-chromen-4-yl]-4-(morpholin-4-yl)-1,6-naphthyridine-3-carboxamide]	< 0.1	3.16 to 31.6	< 0.1		> 80		3.16 to 31.6	80	100	90
